Assay results from PMC7956476, “Quinoline Functionalized Schiff Base Silver (I) Complexes: Interactions with Biomolecules and In Vitro Cytotoxicity, Antioxidant and Antimicrobial Activities” (Molecules, 2021).

What was measured:
Assay in all cases: Cytotoxicity assay (CellTiter 96 AQueous One Solution, 72 h)
[1] = system: human embryonic kidney 293 (HEK293); assay type: cell-based; details: normal cell line, n = 3, read-out: EC50 ± Std Dev (µM) HEK293
Description: (§1) In vitro cell viability with cultured cells is a method commonly used for cytotoxicity activities of potential anticancer compounds due to reduced cost speed, and potential for automation, and tests using human cells other than some in vivo animal tests. […] The cytotoxicity assay was conducted as per the standard method and as described by Abrahams et al. 2018 [111]. […] The plate was then incubated for 72 h at 37 °C and 5% CO2. To each well, 20 µL CellTiter 96 AQueous One Solution (Promega, Madison, WI, USA) was added and the plates were incubated for 4 h as previously described. Thereafter, absorbance was read at 490 nm on a multiplate reader (Molecular Devices, San Jose, CA, USA). […] The values recorded are averages of at least three separate experiments (n = 3).

[2] = system: breast cancer cell line (MDA-MB231); assay type: cell-based, human
Description: as §1

[3] = system: cervical cancer cell line (HELA); assay type: cell-based, human
Description: as §1

[4] = system: neuronal cancer cell line (SHSY5Y); assay type: cell-based, human
Description: as §1

## N.N.[Cl][Pt][Cl] [Cisplatin, cisplatin, reference compound]
[1]
  EC50: 14.2 ± 3.8 µM
[2]; 72 h, n = 3, read-out: EC50 ± Std Dev (µM) MDA-MB231
  EC50: 22.7 ± 4.89 µM
[2]; EC50 in HEK293 over EC50 in MDA-MB231
  Selectivity Index (SI) MDA-MB231: 0.63
[3]; 72 h, n = 3, read-out: EC50 ± Std Dev (µM) HELA
  EC50: > 50 µM
[3]; EC50 in HEK293 over EC50 in HELA
  Selectivity Index (SI) HELA: 0.28
[4]; 72 h, n = 3, read-out: EC50 ± Std Dev (µM) SHSY5Y
  EC50: 19.7 ± 3.77 µM
[4]; EC50 in HEK293 over EC50 in SHSY5Y
  Selectivity Index (SI) SHSY5Y: 0.72
